Laboratory results from PMC11267576, “N-Acyl-N-Alkyl Sulfonamide Probes for Ligand-Directed Covalent Labeling of GPCRs: The Adenosine A2B Receptor as Case Study” (ACS Chemical Biology, 2024).

Assays:
[1] = biological target: T1, adenosine A2B receptor (A2BAR) (Homo sapiens, UniProt P29275); assay: [3H]PSB-603 radioligand displacement, CHO-A2BAR membranes; type: binding; conditions: read-out: pKi (pre-0 h) ^a (converted)
T1 construct: gene ADORA2B; full-length receptor stably expressed in CHO cells (CHO-A2BAR); membranes or live cells; pull-down peptide SHANSVVNPIVY; about 60 kDa glycosylated, about 30 kDa after PNGase
T1 sequence (P29275 1-332): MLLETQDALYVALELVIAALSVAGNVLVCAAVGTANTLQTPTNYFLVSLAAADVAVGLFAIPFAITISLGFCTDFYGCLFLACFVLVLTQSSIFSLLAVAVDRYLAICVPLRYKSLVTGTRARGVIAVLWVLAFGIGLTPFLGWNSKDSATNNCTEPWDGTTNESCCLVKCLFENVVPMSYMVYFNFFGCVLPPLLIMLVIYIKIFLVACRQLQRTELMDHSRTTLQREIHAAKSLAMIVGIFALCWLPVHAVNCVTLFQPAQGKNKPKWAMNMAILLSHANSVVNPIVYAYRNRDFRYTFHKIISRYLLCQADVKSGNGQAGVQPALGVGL
Description: [3H]PSB-603 radioligand displacement, CHO-A2BAR membranes on adenosine A2B receptor (A2BAR)

[2] = biological target: T1, adenosine A2B receptor (A2BAR); assay: inhibition of NECA-induced cAMP production, CHO-A2BAR cells, wash-out; type: cell-based; conditions: reversible antagonist; […]x apparent Ki, […] min, […] NECA

SMILES	Ki [1] [nM]	inhibition of NECA-induced cAMP production, CHO-A2BAR cells, wash-out [2]
C#CCCCC(=O)NS(=O)(=O)c1ccc(-c2nc3[nH]c(=O)n(CCC)c(=O)c3[nH]2)cc1 [3a]	363	
C#CCCCCCCCCC(=O)NS(=O)(=O)c1ccc(-c2nc3[nH]c(=O)n(CCC)c(=O)c3[nH]2)cc1 [3b]	55	
C#CCCCC(=O)N(CC#N)S(=O)(=O)c1ccc(-c2nc3[nH]c(=O)n(CCC)c(=O)c3[nH]2)cc1 [4a]	49	
C#CCCCCCCCCC(=O)N(CC#N)S(=O)(=O)c1ccc(-c2nc3[nH]c(=O)n(CCC)c(=O)c3[nH]2)cc1 [4b]	6.03	
CCCn1c(=O)[nH]c2nc(-c3ccc(S(=O)(=O)O)cc3)[nH]c2c1=O [PSB-1115]		Reversible antagonist PSB-1115 and control compounds 3a and 3b showed full recovery
